Values quoted from earlier work in US20210251886A1, “ORAL MUCOSAL DELIVERY SYSTEMS COMPRISING MONOPHASIC CONCENTRATE OF TERIPARATIDE” (ZIM LABORATORIES LIMITED, priority 2018, published 2021).
Read-outs that look alike come from different tables or passages of the source.

Conditions: dogs

bioavailability (buccal route): about 3.3%
bioavailability (oral route): 4.8%
SMILES: CC[C@H](C)[C@H](NC(=O)[C@H](CCC(=O)O)NC(=O)[C@H](CO)NC(=O)[C@@H](NC(=O)[C@@H](N)CO)C(C)C)C(=O)N[C@@H](CCC(N)=O)C(=O)N[C@@H](CC(C)C)C(=O)N[C@@H](CCSC)C(=O)N[C@@H](Cc1cnc[nH]1)C(=O)N[C@@H](CC(N)=O)C(=O)N[C@@H](CC(C)C)C(=O)NCC(=O)N[C@@H](CCCCN)C(=O)N[C@@H](Cc1cnc[nH]1)C(=O)N[C@@H](CC(C)C)C(=O)N[C@@H](CC(N)=O)C(=O)N[C@@H](CO)C(=O)N[C@@H](CCSC)C(=O)N[C@@H](CCC(=O)O)C(=O)N[C@@H](CCCN=C(N)N)C(=O)N[C@H](C(=O)N[C@@H](CCC(=O)O)C(=O)N[C@@H](Cc1c[nH]c2ccccc12)C(=O)N[C@@H](CC(C)C)C(=O)N[C@@H](CCCN=C(N)N)C(=O)N[C@@H](CCCCN)C(=O)N[C@@H](CCCCN)C(=O)N[C@@H](CC(C)C)C(=O)N[C@@H](CCC(N)=O)C(=O)N[C@@H](CC(=O)O)C(=O)N[C@H](C(=O)N[C@@H](Cc1cnc[nH]1)C(=O)N[C@@H](CC(N)=O)C(=O)N[C@@H](Cc1ccccc1)C(=O)O)C(C)C)C(C)C [PTH (1-34)]
